The text below walks through data of patent US20220248673A1, “FUNGICIDAL COMBINATIONS, MIXTURES AND COMPOSITIONS AND USES THEREOF” (priority 2019, published 2022).

The subject of assay [1] is Z. tritici strain Mg Tri-R6. Kind of assay: Efficacy on first-leaf fragments of treated wheat plantlets cv. Alixan inoculated with Z. tritici, AUDPC-based (Examples 1-3). It is filed as in vivo, Zymoseptoria tritici. To be noted: from AUDPC (21 and 28 dpi), percent of untreated control. How it is done:
Winter wheat plants cv. Alixan (Limagrain) at the BBCH 12 growth stage are treated with a mixture of the compound of Formula I and a fungicide selected from the group consisting of fluindapyr, pydiflumetofen, mefentrifluconazole, fenpicoxamid, inpyrfluxam and isofetamid.
The compound of Formula I and the fungicide (A) are applied at different rates and at different weight ratio with a hand sprayer at 2 bars calibrated. For each condition tested, three replicates (pots) of 6 wheat plants are used.
Fragments of the first leaf are cut and are transferred into a Petri dish containing adapted water agar (6 leaf fragments per Petri dish). Fragments are inoculated with a calibrated pycnospores suspension of Z. tritici strain Mg Tri-R6.
After inoculation, Petri dishes are incubated in a climatic chamber having a temperature of 20° C. day/17° C. night, photoperiod of 16 h light/8 h dark, and controlled relative humidity. Disease assessments are carried out 21 days post inoculation (dpi) and 28 dpi by measuring the length of the necrosis of the leaf fragment. The intensity of infection is then determined as a percent of the total length of the leaf fragment.
The efficacy is calculated based on the Area Under the Disease Progress Curve (AUDPC) which is a quantitative measure of disease intensity over time. The most commonly used method for estimating the AUDPC, the trapezoidal method, is performed for each time interval by multiplying the average disease intensity between each pair of adjacent time points by the corresponding time interval.
The fungicide efficacies are determined from the AUDPC values and expressed as a percent of the untreated control.
The compound of Formula I and mefentrifluconazole were applied with a hand sprayer at 2 bars calibrated to deliver the equivalent of 200 L/ha. Three replicates (pots) of 6 wheat plants each were used for each treatment group.
Fragments of the first leaf were cut and transferred into a Petri dish containing adapted water agar (6 leaf fragments per Petri dish). Fragments were inoculated with a calibrated pycnospores suspension of Z. tritici strain Mg Tri-R6.
After inoculation, Petri dishes were incubated in a climatic chamber having a temperature of 20° C. day/17° C. night, photoperiod of 16 h light/8 h dark, and controlled relative humidity. Disease assessments were carried out 21 days post inoculation (dpi) and 28 dpi by measuring the length of the necrosis of the leaf fragment. The intensity of infection was then determined as percent of the total length of the leaf fragment.
(§1) The efficacy was calculated based on the Area Under the Disease Progress Curve (AUDPC) which is a quantitative measure of disease intensity over time. The most commonly used method for estimating the AUDPC, the trapezoidal method, was performed for each time interval by multiplying the average disease intensity between each pair of adjacent time points by the corresponding time interval.
(§2) The fungicide efficacies were determined from the AUDPC values and expressed as a percent of the untreated control.
The compound of Formula I and fenpicoxamid were applied with a hand sprayer at 2 bars calibrated to deliver the equivalent of 200 L/ha. […]
After inoculation, Petri dishes were incubated in a climatic chamber having a temperature of 20° C. day/17° C. night, photoperiod of 16 h light/8 h dark and controlled relative humidity. […] The intensity of infection was then determined as percent of the total length of the leaf fragment. […]

Assay [2] concerns Z. tritici strain Mg Tri-R6. Kind of assay: Efficacy on first-leaf fragments of treated wheat plantlets cv. Alixan inoculated with Z. tritici, AUDPC-based (Example 4, pydiflumetofen). It is filed as in vivo, Zymoseptoria tritici. To be noted: from AUDPC (21 and 28 dpi). How it is done:
Winter wheat plants cv. Alixan (Limagrain) at the BBCH 12 growth stage were treated with mixture of Compound of Formula I and pydiflumetofen at several rates with a hand sprayer at 2 bars calibrated to deliver the equivalent of 200 L/ha. The Compound of Formula I was applied at 5 g a.i./ha. Pydiflumetofen was applied at 0.00032-0.0016 and 0.008 g a.i./ha. Three replicates (pots) of 6 wheat plants each were used for each condition tested.
After treatment, wheat plants were left to dry at room temperature for 1 hour and then incubated in a climatic chamber having a temperature of 24° C. day/18° C. night, photoperiod of 16 h light/8 h dark and a relative humidity of 65%. Fragments of the first leaf were cut and transferred in Petri dish containing adapted water agar (6 leaf fragments per Petri dish). Fragments were inoculated with a calibrated pycnospores suspension of Z. tritici strain Mg Tri-R6.
After inoculation, Petri dishes were incubated in a climatic chamber having a temperature of 20° C. day/17° C. night, photoperiod of 16 h light/8 h dark and controlled relative humidity.
Disease assessments were carried out 21 days post inoculation (dpi) and 28 dpi by measuring the length of the necrosis of the leaf fragment. The intensity of infection was then determined in percent of the total length of the leaf fragment.
as §1, §2

Setting [3] is: fungicide (A) alone, rate 0.39 g a.i./ha.

Regarding `Cc1ccc(S(=O)(=O)n2cc(F)c(=N)n(C)c2=O)cc1` [Compound of Formula I, 5-fluoro-4-imino-3-methyl-1-tosyl-3,4-dihydropyrimidin-2(1H)-one], the “Observed Efficacy” value is on record as 56.4% in assay [1] (compound of Formula I alone, rate 5 g a.i./ha); 69.1% in assay [1] (compound of Formula I alone, rate 10 g a.i./ha); 63.2% in assay [2] (compound of Formula I alone, rate 5 g a.i./ha, Example 4). For `COc1ccnc(C(=O)N[C@H]2COC(=O)[C@H](Cc3ccccc3)[C@@H](OC(=O)C(C)C)[C@H](C)OC2=O)c1OCOC(=O)C(C)C` [Fenpicoxamid, (3S,6S,7R,8R)-8-benzyl-3-{3-[(isobutyryloxy)methoxy]-4-methoxypyridine-2-carboxamido}-6-methyl-4,9-dioxo-1,5-dioxonan-7-yl-isobutyrate], the “Observed Efficacy” value in assay [1] (setting [3]) was determined as 56.0%. With `CC1CC(C)(C)c2c(F)ccc(NC(=O)c3cn(C)nc3C(F)F)c21` (stereo not drawn) [Fluindapyr, 3-(Difluoromethyl)-N-(7-fluoro-2,3-dihydro-1,1,3-trimethyl-1H-inden-4-yl)-1-methyl-1H-pyrazole-4-carboxamide], the “Observed Efficacy” value in assay [1] (setting [3]) is recorded as 43.5%. As for `CC(O)(Cn1cncn1)c1ccc(Oc2ccc(Cl)cc2)cc1C(F)(F)F` (stereo not drawn) [Mefentrifluconazole, 2-[4-(4-chlorophenoxy)-2-(trifluoromethyl)phenyl]-1-(1,2,4-triazol-1-yl)propan-2-ol], in assay [1] (setting [3]), the “Observed Efficacy” value is recorded as 46.8%. Regarding `CON(C(=O)c1cn(C)nc1C(F)F)[C@@H](C)Cc1c(Cl)cc(Cl)cc1Cl` [Pydiflumetofen, 3-(difluoromethyl)-N-methoxy-1-methyl-N-[(2S)-1-(2,4,6-trichlorophenyl)propan-2-yl]-1H-pyrazole-4-carboxamide], the “Observed Efficacy” value in assay [2] (pydiflumetofen alone, rate 0.00032 g a.i./ha) worked out at 21.3%; in assay [2] (pydiflumetofen alone, rate 0.0016 g a.i./ha) it was 35.6%; in assay [2] (pydiflumetofen alone, rate 0.008 g a.i./ha) it was 44.0%.
